# Laboratory results taken from ChEMBL document CHEMBL1201862, “PubChem BioAssay data set” (2004).
# Calls of active or inactive are those of the source.
# Columns and labels:
# A-375 [1] = assay: A375 melanoma cell viability reduction, dose response, counter-screen for MITF modulator project, cherry-pick samples, set 2 (AID 540335); format: functional, cell-based; settings: Homo sapiens
# A-375 [2] = assay: MITF: Counter assay: A375 proliferation Measured in Cell-Based System Using Plate Reader - 2084-03_Inhibitor_Dose_DryPowder_Activity. [Related pubchem assays (depositor defined):AID488944]; format: functional; settings: Homo sapiens
# [3] = molecular target: Lysine-specific demethylase 4C (Homo sapiens, UniProt Q9H3R0); assay: GASC-1 (JMJD2C) histone demethylase inhibitors, dose response, biochemical, DELFIA europium, cherry-picked samples (AID 488835); format: functional
# [4] = HepG2 cell cytotoxicity, dose response, cytotoxicity control for Shn3 inhibitor project, CellTiter-Glo, cherry-picked (AID 624134); format: functional, cell-based
# [5] = control 3'UTR Renilla luciferase suppression, dose response, counter-screen for Shn3 inhibitor project, cell-based, Clone20-Shn3RL, cherry-picked (AID 624133); format: functional
# [6] = Shn3 3'UTR reporter inhibitors, dose response, cell-based, Clone20 osteoblasts, firefly luciferase, cherry-picked (AID 624132); format: functional;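 also: firefly luciferase luminescence from reporter carrying the Shn3 3'UTR in osteoblasts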
# [7] = molecular target: T1, Microphthalmia-associated transcription factor (Homo sapiens, UniProt O75030); assay: TRPM1 promoter luciferase signal decrease, dose response, MITF inhibitor project, cell-based, SK-MEL-5, cherry-picked, set 3 (AID 493073); format: functional
# T1 sequence (O75030 whole entry): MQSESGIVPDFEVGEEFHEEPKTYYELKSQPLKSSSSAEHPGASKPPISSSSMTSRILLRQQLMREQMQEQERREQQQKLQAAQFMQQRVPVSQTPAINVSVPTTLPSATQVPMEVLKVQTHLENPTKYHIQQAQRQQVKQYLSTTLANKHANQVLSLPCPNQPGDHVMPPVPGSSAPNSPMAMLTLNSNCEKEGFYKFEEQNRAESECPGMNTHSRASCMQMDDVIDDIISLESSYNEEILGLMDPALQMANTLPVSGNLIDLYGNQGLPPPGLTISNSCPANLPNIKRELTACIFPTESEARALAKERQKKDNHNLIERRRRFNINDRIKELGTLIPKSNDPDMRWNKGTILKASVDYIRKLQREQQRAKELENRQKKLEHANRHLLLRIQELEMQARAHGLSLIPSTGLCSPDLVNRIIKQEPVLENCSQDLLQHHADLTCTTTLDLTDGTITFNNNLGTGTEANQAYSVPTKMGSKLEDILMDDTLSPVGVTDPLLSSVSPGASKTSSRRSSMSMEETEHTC
# [8] = A Cell Based Secondary Assay To Explore Cytotoxicity of Compounds that Sensitize Mycobacterium Tuberculosis to Beta-Lactam Antibiotics.; format: functional
# ORF 73 = molecular target: T2, ORF 73 (Human herpesvirus 8, UniProt O40947); assay: inhibitors of C-LANA binding to LBS DNA, dose response, biochemical, fluorescence polarization, cherry-picked samples (AID 504725); set-up: species or system Human gammaherpesvirus 8;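 also: fluorescence polarization of a labeled DNA duplex reporting LANA DNA binding; potency is for inhibitors that block LANA binding to the DNA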
# T2 sequence (O40947 whole entry): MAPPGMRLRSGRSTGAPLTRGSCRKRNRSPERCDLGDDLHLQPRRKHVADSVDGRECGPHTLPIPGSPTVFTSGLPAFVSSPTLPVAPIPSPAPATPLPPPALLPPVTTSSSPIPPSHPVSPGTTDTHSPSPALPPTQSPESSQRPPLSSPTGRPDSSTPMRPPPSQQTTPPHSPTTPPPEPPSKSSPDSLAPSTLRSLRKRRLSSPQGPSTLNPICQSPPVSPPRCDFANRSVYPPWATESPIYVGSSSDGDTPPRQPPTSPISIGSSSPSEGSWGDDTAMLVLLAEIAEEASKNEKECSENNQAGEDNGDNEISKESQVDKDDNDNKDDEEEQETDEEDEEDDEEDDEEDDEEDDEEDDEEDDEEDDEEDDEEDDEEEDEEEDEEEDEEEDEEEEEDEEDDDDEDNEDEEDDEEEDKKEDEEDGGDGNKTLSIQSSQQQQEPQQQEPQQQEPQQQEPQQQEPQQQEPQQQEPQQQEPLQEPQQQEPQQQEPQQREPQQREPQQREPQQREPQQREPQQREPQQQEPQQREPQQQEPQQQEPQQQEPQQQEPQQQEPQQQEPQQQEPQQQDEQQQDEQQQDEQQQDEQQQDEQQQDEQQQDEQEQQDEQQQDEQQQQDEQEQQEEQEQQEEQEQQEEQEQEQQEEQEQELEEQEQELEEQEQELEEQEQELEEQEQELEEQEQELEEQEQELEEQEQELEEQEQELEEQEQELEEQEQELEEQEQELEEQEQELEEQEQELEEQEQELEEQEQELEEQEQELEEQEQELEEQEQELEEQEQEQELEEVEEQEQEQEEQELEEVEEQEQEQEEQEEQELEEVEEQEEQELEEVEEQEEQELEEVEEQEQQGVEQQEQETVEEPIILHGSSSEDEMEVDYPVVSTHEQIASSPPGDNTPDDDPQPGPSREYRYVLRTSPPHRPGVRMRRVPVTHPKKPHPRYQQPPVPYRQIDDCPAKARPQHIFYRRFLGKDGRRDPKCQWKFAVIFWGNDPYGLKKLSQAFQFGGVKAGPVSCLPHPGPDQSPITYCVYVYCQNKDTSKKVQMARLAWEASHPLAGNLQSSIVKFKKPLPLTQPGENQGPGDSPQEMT
# Cytochrome P450 2D6 = Cytochrome P450 2D6 (Homo sapiens, UniProt P10635);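 also: CYP2D6 member of a cytochrome P450 panel assay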
# HEK293 [9] = assay: cells; settings: Homo sapiens
# HeLa = assay: HeLa cell cytotoxicity, dose response, cytotoxicity control, 24 h, cherry-picked samples (AID 504726); format: functional, cell-based; settings: Homo sapiens;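 also: potency for cytotoxicity as loss of luminescence signal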
# HEK293 [10] = assay: cells; settings: Homo sapiens; remark: listed apart in the source
# [11] = molecular target: T3, Nucleotide-binding oligomerization domain-containing protein 2 (Homo sapiens, UniProt Q9HC29); assay: NOD2 signaling inhibitors, analog potency, SAR follow-up, cell-based, set 3 (AID 2799); format: functional
# HEK293 [12] = assay: SAR analysis of compounds that are cytotoxic to HEK293 - Set 3. [Related pubchem assays (depositor defined):AID1575, AID1578, AID1848, AID1849, AID2001, AID2333, AID2334, AID2335, AID2337, AID2469]; format: functional, cell-based; settings: Homo sapiens
# Tumor necrosis factor [13] = molecular target: T4, Tumor necrosis factor (Homo sapiens, UniProt P01375); assay: TNFa-triggered NF-kB activation inhibitors, SAR follow-up, cell-based, set 3 (AID 2801); format: functional
# [14] = molecular target: T5, Nucleotide-binding oligomerization domain-containing protein 1 (Homo sapiens, UniProt Q9Y239); assay: SAR analysis of compounds that inhibit NOD1 - Set 3. [Related pubchem assays (depositor defined):AID1566, AID1575, AID1578, AID1849, AID1852, AID2333, AID2335, AID2466]; format: functional
# T5 sequence (Q9Y239 whole entry): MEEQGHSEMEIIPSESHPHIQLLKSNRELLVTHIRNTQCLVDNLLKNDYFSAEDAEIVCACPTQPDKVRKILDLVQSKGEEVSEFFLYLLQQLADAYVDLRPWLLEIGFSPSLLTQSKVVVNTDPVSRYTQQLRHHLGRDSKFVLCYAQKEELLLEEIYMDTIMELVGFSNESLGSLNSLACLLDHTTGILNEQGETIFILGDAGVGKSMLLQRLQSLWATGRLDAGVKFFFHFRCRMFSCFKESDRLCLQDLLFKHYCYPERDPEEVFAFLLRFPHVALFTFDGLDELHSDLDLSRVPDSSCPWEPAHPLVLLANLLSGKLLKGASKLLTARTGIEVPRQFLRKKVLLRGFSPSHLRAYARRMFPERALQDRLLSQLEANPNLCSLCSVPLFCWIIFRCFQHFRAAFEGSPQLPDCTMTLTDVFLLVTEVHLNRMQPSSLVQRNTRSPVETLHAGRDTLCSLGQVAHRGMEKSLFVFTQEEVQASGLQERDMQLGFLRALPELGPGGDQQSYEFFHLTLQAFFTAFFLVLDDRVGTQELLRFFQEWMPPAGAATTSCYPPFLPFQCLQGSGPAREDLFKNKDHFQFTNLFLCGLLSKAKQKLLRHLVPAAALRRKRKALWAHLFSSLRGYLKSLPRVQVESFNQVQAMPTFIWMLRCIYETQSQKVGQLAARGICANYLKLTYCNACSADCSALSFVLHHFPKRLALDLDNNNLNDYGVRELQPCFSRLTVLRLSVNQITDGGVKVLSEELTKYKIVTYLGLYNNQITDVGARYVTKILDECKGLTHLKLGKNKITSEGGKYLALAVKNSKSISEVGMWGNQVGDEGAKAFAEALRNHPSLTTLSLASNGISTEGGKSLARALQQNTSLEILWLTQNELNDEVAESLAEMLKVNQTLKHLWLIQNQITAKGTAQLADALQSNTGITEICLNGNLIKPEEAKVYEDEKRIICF
# HEK293 [15] = assay: cells; format: functional, cell-based; settings: Homo sapiens
# HEK293 [16] = assay: NOD2 signaling inhibitors in MDP-stimulated cells, cell-based, uHTS, luminescence (AID 2001); format: functional; settings: Homo sapiens
# HEK293 [17] = assay: cells; format: functional, cell-based; settings: Homo sapiens; remark: listed apart in the source
# [18] = molecular target: T3, Nucleotide-binding oligomerization domain-containing protein 2; assay: NOD2 signaling inhibitors, cell-based, luminescence, uHTS, HEK293 (AID 1566); format: functional
# HEK293 [19] = assay: cells; format: functional, cell-based; settings: Homo sapiens; remark: listed apart in the source
# Nonstructural protein 1 = Nonstructural protein 1 (Influenza A virus, UniProt Q194T2); format: functional, Influenza A virus (A/California/07/2009(H1N1))
# HEK293 [20] = assay: NOD1 signaling inhibitors, primary screen, cell-based, luminescence, uHTS (AID 1578); format: functional; settings: Homo sapiens
# Vero [21] = assay: cells; format: functional, cell-based; settings: Chlorocebus sabaeus
# Vero [22] = assay: cells; format: functional; settings: Chlorocebus sabaeus
# [23] = Luminescence Cell-Based Dose Response HTS to Identify Inhibitors of 5'UTR Stem-Loop Driven Prion Protein mRNA Translation in H4 Neuroglioblastoma Cells. [Related pubchem assays: 1827 (Project Summary), 1813 (Primary HTS)]; format: functional
# [24] = inhibitors of SNCA 5'UTR-driven reporter translation, confirmation, H4 neuroglioma cells, luminescence (AID 1988); format: functional, cell-based
# [25] = inhibitors of firefly luciferase expression or activity, dose response, H4 neuroglioma cells, luminescence (AID 1990); format: functional, cell-based
# [26] = Luminescence Cell-Based Dose Retest to Confirm Inhibitors of Cancer Stem Cells. [Related pubchem assays (depositor defined):AID2717, AID2721]; format: functional; settings: Homo sapiens
# HEK293 [27] = assay: cells; settings: Homo sapiens; remark: listed apart in the source
# [28] = molecular target: T5, Nucleotide-binding oligomerization domain-containing protein 1; assay: NOD1 signaling inhibitors, SAR follow-up, revised (AID 2333); format: functional
# Tumor necrosis factor [29] = molecular target: T4, Tumor necrosis factor; assay: TNFa-triggered NF-kB activation inhibitors, SAR follow-up, cell-based, revised (AID 2337); format: functional
# T3 sequence (Q9HC29 whole entry, the tested form may be a part): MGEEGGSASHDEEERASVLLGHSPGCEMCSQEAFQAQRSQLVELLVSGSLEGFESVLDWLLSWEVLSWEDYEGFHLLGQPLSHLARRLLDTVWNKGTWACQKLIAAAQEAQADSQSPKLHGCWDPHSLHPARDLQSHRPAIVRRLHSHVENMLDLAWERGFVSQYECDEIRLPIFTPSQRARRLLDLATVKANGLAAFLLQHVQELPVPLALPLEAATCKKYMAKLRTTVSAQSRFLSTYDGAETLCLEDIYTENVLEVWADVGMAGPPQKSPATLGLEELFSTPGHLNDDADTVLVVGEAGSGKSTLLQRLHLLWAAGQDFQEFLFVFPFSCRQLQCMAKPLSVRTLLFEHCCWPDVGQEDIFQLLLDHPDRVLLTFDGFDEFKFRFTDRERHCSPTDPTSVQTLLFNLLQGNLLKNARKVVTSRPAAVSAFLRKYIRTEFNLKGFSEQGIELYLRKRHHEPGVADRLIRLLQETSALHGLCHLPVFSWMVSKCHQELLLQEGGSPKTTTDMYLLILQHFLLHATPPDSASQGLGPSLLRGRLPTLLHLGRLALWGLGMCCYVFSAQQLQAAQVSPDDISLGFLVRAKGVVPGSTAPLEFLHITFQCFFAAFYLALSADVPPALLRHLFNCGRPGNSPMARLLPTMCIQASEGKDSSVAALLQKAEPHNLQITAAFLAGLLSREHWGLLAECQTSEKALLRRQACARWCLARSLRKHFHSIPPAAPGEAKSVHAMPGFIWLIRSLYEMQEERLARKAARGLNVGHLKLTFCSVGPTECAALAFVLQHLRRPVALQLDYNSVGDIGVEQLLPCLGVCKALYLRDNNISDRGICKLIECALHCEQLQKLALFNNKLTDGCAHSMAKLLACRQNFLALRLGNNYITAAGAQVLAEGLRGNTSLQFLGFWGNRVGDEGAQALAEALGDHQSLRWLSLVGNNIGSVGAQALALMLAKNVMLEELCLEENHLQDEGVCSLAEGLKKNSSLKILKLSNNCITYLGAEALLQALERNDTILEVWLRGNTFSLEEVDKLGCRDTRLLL
# T4 sequence (P01375 whole entry, the tested form may be a part): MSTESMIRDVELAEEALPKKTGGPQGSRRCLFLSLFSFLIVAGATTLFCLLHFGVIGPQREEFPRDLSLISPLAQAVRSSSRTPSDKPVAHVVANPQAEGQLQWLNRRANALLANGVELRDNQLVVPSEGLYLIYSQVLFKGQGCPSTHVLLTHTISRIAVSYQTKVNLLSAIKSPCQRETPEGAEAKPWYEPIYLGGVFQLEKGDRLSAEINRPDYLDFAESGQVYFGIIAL
# Chain of Lysine-specific demethylase 4C (Q9H3R0 whole entry): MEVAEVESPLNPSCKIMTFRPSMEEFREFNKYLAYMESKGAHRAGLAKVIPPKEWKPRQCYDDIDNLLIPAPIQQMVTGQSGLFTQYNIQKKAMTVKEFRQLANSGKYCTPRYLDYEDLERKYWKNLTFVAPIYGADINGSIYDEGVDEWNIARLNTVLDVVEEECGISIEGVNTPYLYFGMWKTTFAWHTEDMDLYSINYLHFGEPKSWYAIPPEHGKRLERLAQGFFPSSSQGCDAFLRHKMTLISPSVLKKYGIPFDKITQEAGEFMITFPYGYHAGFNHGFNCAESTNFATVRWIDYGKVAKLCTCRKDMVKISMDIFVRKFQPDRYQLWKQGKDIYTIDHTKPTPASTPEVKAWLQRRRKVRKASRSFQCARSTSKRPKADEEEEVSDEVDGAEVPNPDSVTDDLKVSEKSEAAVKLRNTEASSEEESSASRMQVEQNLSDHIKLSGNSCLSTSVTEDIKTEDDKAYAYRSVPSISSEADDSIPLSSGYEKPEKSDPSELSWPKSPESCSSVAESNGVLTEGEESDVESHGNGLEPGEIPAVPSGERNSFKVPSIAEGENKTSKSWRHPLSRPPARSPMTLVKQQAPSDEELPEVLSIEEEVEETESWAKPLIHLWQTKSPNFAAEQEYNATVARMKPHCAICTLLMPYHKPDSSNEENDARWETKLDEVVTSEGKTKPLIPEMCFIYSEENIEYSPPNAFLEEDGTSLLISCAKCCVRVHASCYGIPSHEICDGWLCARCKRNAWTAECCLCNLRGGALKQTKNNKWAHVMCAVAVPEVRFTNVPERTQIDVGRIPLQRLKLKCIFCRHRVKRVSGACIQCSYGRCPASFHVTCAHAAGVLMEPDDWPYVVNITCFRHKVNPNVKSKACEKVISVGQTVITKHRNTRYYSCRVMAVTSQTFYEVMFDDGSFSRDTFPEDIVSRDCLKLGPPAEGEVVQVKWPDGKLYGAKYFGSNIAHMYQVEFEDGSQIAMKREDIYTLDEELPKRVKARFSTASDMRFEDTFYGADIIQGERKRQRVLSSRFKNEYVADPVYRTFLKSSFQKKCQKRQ
# Chain of Cytochrome P450 2D6 (P10635 whole entry): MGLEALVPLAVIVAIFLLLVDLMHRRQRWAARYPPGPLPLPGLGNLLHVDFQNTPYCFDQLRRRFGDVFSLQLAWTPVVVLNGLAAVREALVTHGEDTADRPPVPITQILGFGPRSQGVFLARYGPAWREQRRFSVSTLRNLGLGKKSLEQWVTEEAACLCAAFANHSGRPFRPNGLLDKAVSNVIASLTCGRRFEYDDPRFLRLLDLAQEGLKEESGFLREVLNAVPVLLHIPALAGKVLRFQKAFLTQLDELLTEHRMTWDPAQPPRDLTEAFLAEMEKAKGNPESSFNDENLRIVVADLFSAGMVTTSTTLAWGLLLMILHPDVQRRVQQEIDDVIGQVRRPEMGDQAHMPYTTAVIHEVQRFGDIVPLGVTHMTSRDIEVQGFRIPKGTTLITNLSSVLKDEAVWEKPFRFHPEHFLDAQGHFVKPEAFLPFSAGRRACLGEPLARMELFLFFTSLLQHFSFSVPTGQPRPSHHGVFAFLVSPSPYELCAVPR
# Chain of Nonstructural protein 1 (Q194T2 whole entry): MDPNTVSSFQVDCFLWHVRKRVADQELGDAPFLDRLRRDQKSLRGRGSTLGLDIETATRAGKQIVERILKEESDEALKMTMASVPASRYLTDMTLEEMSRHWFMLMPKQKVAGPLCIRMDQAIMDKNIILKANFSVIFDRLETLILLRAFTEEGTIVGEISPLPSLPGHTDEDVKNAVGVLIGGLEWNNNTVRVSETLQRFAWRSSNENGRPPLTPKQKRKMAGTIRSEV
smiles,measurement,setting,value
CC(C)(CO)NC(=O)c1ccc2nc(Cc3cccc(Cl)c3)oc2c1,AC50,A-375 [1],> 35 µM (active)
same,AC50,A-375 [2],> 35 µM (active)
CCOc1ccc(NC(=O)CSc2nnc(-c3ccccc3)n2N)cc1,AC50,[3],12.1 µM (active)
O=C(Nc1ccc2nc3n(c(=O)c2c1)CCCC3)c1cc([N+](=O)[O-])ccc1F,AC50,[4],39.2 µM (active)
same,AC50,A-375 [1],> 35 µM (active)
same,AC50,[5],21.8 µM (active)
same,AC50,[6],0.361 µM (active)
same,AC50,[7],11.5 µM (active)
same,CC50,[8],15.1 µM (active)
same,AC50,A-375 [2],> 35 µM (active)
CC(C)(C)n1nnnc1C(c1cccnc1)N(Cc1ccccc1)Cc1ccco1 (centres undefined),AC50,ORF 73,0.592 µM (active)
same,AC50,Cytochrome P450 2D6,31.6 µM (inconclusive)
same,EC50,HEK293 [9],> 59.6 µM (inactive)
same,AC50,HeLa,75.8 µM (active)
same,EC50,HEK293 [10],> 59.6 µM (inactive)
COc1ccc(-c2cc(N)n(S(=O)(=O)c3ccc(F)c(C)c3)n2)cc1,IC50,[11],> 20 µM (inactive)
same,IC50,HEK293 [12],> 20 µM (inactive)
same,IC50,Tumor necrosis factor [13],19.9 µM (active)
same,IC50,[14],> 20 µM (inactive)
CCCN(C(=O)Cc1ccc(S(=O)(=O)N2CCOCC2)s1)c1c(N)n(Cc2ccccc2)c(=O)[nH]c1=O,AC50,[3],39.2 µM (active)
COc1cc(/C=C2\CCC/C(=C\c3ccc(O)c(OC)c3)C2=O)ccc1O [CYCLOVALONE],IC50,HEK293 [15],> 20 µM (inactive)
same,IC50,HEK293 [16],3.75 µM (active)
same,IC50,HEK293 [17],> 20 µM (inactive)
same,EC50,[18],9.95 µM (active)
same,IC50,HEK293 [19],3.6 µM (active)
same,IC50,Nonstructural protein 1,> 100 µM (active)
same,EC50,HEK293 [20],4.94 µM (active)
Cc1ccc(-c2nnn3c2nc(Cl)c2ccccc23)cc1,IC50,Vero [21],> 25 µM (active)
same,CC50,Vero [22],18.4 µM (active)
Nc1nc2ccccc2n1S(=O)(=O)c1ccc(F)cc1,IC50,[11],> 20 µM (inactive)
same,IC50,HEK293 [12],> 20 µM (inactive)
same,IC50,Tumor necrosis factor [13],> 20 µM (inactive)
same,IC50,[14],4.31 µM (active)
Cc1cccc(N/N=C(\C(N)=O)C2=NC(C)(C)Cc3ccccc32)c1,EC50,[23],13.1 µM (active)
same,IC50,Vero [21],> 25 µM (active)
same,EC50,[24],20.2 µM (active)
same,EC50,[25],3.43 µM (active)
same,AC50,[26],9.41 µM (active)
same,CC50,Vero [22],> 25 µM (active)
Cc1cccc(NC(=O)CSCC(=O)Nc2cc(C(F)(F)F)ccc2N2CCOCC2)c1,EC50,HEK293 [9],> 59.6 µM (inactive)
same,EC50,HEK293 [10],> 59.6 µM (inactive)
CC1Cc2cc(S(=O)(=O)N3CCN(c4ccc([N+](=O)[O-])cc4)CC3)ccc2N1C(=O)C1CC1 (centres undefined),IC50,HEK293 [27],15.2 µM (active)
same,IC50,[28],0.26 µM (active)
same,IC50,Tumor necrosis factor [29],0.236 µM (active)
